Test results from patent US5100892A, “Dihydropyridine vasodilator agents” (Glaxo Inc., priority 1990, dated 1992).

Key:
[1] = tested on: Spontaneously Hypertensive Rats; experiment: Spontaneously Hypertensive Rat (SHR) Test, hemodynamics in anesthetized rats; type: in vivo, Spontaneously Hypertensive Rat (Sprague Dawley); details: for HR (Heart Rate: change from basal) / LVPT (time for Left Ventricular Pressure to decay from peak to 50%, % of basal) / MBP (Mean Blood Pressure: change from basal) / RT64 (change in time from maximal relaxation, % of basal) / dP/dT40 (change in rate of systolic pressure increase of left ventricle measured at 40 mm Hg from basal): anesthetized SHR
Method: Male Retired Breeder Spontaneously Hypertensive Rats (SHR) (Sprague Dawley, 250-350 g) are anesthetized by i.p. injection of Sodium Thiopental 50 mg/kg. A catheter is inserted into the duodenum for maintenance of anesthesia throughout the experiment. A tube is inserted through a lateral incision in the trachea. The left carotid artery is exposed and a Millar SPR-249 (2-F) pressure probe is inserted and passed into the left ventricle of the heart. Left ventricular pressure (LVP), the first differential of the LVP (+dP/dT,-dP/dT), the left ventricular end diastolic pressure (LVEDP) and the differential of the increase in LVP measured at a constant pressure of 40 mm Hg (dP/dT40) are measured via this probe. In addition to these parameters, two indices of myocardial diastolic relaxation are measured namely the RT64 (time in msec from the peak derivative of maximal relaxation to 64% of that value) and the Left Ventricular Pressure Time Constant (LVPT), the half-time for decay of the LVP from peak pressure to 50% of that pressure. […] Results also are shown graphically on a Gould RS3800 Recorder. A saline filled cannula is passed into the femoral vein for infusion of drugs and one is placed into the femoral artery for measurement and recording or arterial blood pressure (Statham P23Db pressure transducer). From this signal the diastolic, systolic and mean blood pressure are derived as well as the heart rate. After surgery, the preparation is left to stabilize for 45 minutes after which compounds, dissolved in polyethylene glycol, are slowly infused with a Sage Instruments Infusion pump into the femoral vein. […] After completion of the last infusion, hemodynamic parameters are observed over 30 min and then a standard dose of 3.0 mg/kg milrinone is infused (over 5 min) to test preparation responsiveness. In the SHR, the following results were obtained for several known cardiovascular agents and for the compound of Examples 10,11,15 and 16.

rat aorta = experiment: Rat Aorta Protocol: relaxation of phenylephrine-contracted rings of rat aorta (endothelium removed)
Method: Rings of rat aorta (endothelium removed) were prepared for the measurement of isometric force in isolated tissue organ chambers essentially as previously described by T. J. Rimele et al in the Journal of Pharmacol. Exp. Ther. 245:102-111 (1988). The experimental portion of the protocol began with the addition of methylene blue (1×10^-5 M) and propranolol (1×10^-6 M) to each organ chamber to inhibit basal cGMP accumulation due to soluble guanylate cyclase and beta-adrenoceptors.Phenylephrine (1×10^-7 M) was then added and the rings were allowed to obtain a stable contractile response after which time, the test compound was added in a cumulative fashion. The relaxation induced by each concentration of the test compound was expressed as a percentage of the maximal relaxation produced by nitroprusside (1×10^-4 M) The results were graphically represented as a plot of the percentage relaxation vs. the negative log of the molar concentration of the test compound. The IC50 (concentration of test compound which produced a relaxation equivalent to 50% of the maximal relaxation induced by nitroprusside) was determined for each tissue.

SMILES: COC(=O)C1=C(C)NC(C)=C(C(=O)OCCNC(=O)COc2ccc(-c3cc(C#N)c(=O)[nH]c3C)cc2)C1c1cccc([N+](=O)[O-])c1 (racemic) [Example 10, (±)-2,6-dimethyl-3-carbomethoxy-4-(3-nitrophenyl)-5-{4-[1,2-dihydro-2-oxo-3-cyano-6-methyl-5(1H)-pyridy]phenoxymethylenecarboxyamidoethyloxycarbonyl}-1,4-dihydropyridine]
- HR (Heart Rate: change from basal) ([1]; 0.3 mg/kg i.v.): -1.8%
- LVPT (time for Left Ventricular Pressure to decay from peak to 50%, % of basal) ([1]; 0.3 mg/kg i.v.): -5.1%
- MBP (Mean Blood Pressure: change from basal) ([1]; 0.3 mg/kg i.v.): -2.6%
- RT64 (change in time from maximal relaxation, % of basal) ([1]; 0.3 mg/kg i.v.): -2.6%
- dP/dT40 (change in rate of systolic pressure increase of left ventricle measured at 40 mm Hg from basal) ([1]; 0.3 mg/kg i.v.): 0%
- HR (Heart Rate: change from basal) ([1]; 1.0 mg/kg i.v.): -2.5%
- LVPT (time for Left Ventricular Pressure to decay from peak to 50%, % of basal) ([1]; 1.0 mg/kg i.v.): -7.4%
- MBP (Mean Blood Pressure: change from basal) ([1]; 1.0 mg/kg i.v.): -3.8%
- RT64 (change in time from maximal relaxation, % of basal) ([1]; 1.0 mg/kg i.v.): -5.2%
- dP/dT40 (change in rate of systolic pressure increase of left ventricle measured at 40 mm Hg from basal) ([1]; 1.0 mg/kg i.v.): 1.5%
- HR (Heart Rate: change from basal) ([1]; 3.0 mg/kg i.v.): 1.1%
- LVPT (time for Left Ventricular Pressure to decay from peak to 50%, % of basal) ([1]; 3.0 mg/kg i.v.): -14%
- MBP (Mean Blood Pressure: change from basal) ([1]; 3.0 mg/kg i.v.): -6.3%
- RT64 (change in time from maximal relaxation, % of basal) ([1]; 3.0 mg/kg i.v.): -13.2%
- dP/dT40 (change in rate of systolic pressure increase of left ventricle measured at 40 mm Hg from basal) ([1]; 3.0 mg/kg i.v.): 4.2%
- HR (Heart Rate: change from basal) ([1]; 10 mg/kg i.v.): 6.4%
- LVPT (time for Left Ventricular Pressure to decay from peak to 50%, % of basal) ([1]; 10 mg/kg i.v.): -25%
- MBP (Mean Blood Pressure: change from basal) ([1]; 10 mg/kg i.v.): -23%
- RT64 (change in time from maximal relaxation, % of basal) ([1]; 10 mg/kg i.v.): -19.3%
- dP/dT40 (change in rate of systolic pressure increase of left ventricle measured at 40 mm Hg from basal) ([1]; 10 mg/kg i.v.): 24.7%
- effect on blood pressure (in words) ([1]; 0.3 to 10 mg/kg i.v., SHR): hypotension
- effect on dP/dT40 (in words) ([1]; 0.3 to 10 mg/kg i.v., SHR): an increase in dP/dT40
- effect on heart rate (in words) ([1]; 0.3 to 10 mg/kg i.v., SHR): little change in heart rate
- effect on myocardial relaxation time constants (in words) ([1]; 0.3 to 10 mg/kg i.v., SHR): reduction in the time constants for myocardial relaxation
- Emax at 100 µM (rat aorta; highest dose tested (100 micromolar), read-out: maximal response (relaxation, % of maximal relaxation by nitroprusside)): 96%
- IC50 (rat aorta; phenylephrine 1×10^-7 M contracted, methylene blue and propranolol present, read-out: IC50 (concentration producing relaxation equivalent to 50% of the maximal relaxation induced by nitroprusside)): 2100 nM
